The values below come from patent US12466875B2, “Supramolecular high affinity protein-binding system for purification of biomacromolecules” (THE JOHNS HOPKINS UNIVERSITY, priority 2017, dated 2025).

This assay deals with FITC-IgG. Description: Confocal fluorescence imaging with FITC-IgG. It counts as binding. Particulars: 2 μM FITC-IgG in PBS pH 7.4. The text has this: FIGS. 10A-C. […] (A) Image of Rhodamine B fluorescence. (B) Image of FITC fluorescence and (C) merged image of (A) and (B). Scale bar: 20 μm.
To better visualize the interactions between C12-Z33 immunofibers and IgG, labelling the C12-Z33 with the fluorescent dye (Rhodamine B) allows for direct imaging of fluorescent immunofibers and FITC-IgG under a confocal laser scanning microscope. Rhodamine B has been extensively used for staining biomaterials. […] The self-assembled fibrous morphology in PBS was confirmed using TEM (FIG. 9C). 100 μM RB-C12-Z33 diluted from a 1 mM stock solution and 2 μM FITC-IgG were premixed in PBS. 30 μl solution was spotted on a clean microscope slide right before imaging and covered by a coverslip to obtain a thin layer of liquid.

Entries after “also recorded” stand apart in the source; their conditions may differ.

With “RB-C12-Z33: Rhodamine B labelled C12-Z33; lysine added at N-terminal of Z33, Rhodamine B and C12 conjugated to its amine groups”, the “fluorescence of FITC-IgG after incubation (confocal)” value is listed as “co-localization of the fluorescence signal; also recorded: co-localization of fluorescence signals”.
